According to patent US9873695B2, “Serine derivatives as ghrelin receptor agonists” (RaQualia Pharma Inc., priority 2014, dated 2018):

Target: T1, human ghrelin receptor (Homo sapiens, UniProt Q92847)
T1 construct: expressed in transfected cells
Test: Ghrelin receptor agonistic activity induced Ca2+ influx in HEK293 cells stably expressing human ghrelin receptor
Format: cell-based
Settings: Ca2+ influx (Fluo-4, FDSS6000), 11-point dose-response
Protocol: Measurement of the Ghrelin Receptor Agonistic Activity Induced Ca^2+ Influx in HEK293 Cells Stably Expressing Human Ghrelin Receptor
HEK293 cells stably expressing human ghrelin receptor were maintained in Dulbecco's modified Eagle medium (high glucose) supplemented with 10% fetal bovine serum, 100 units/ml penicillin, 100 microg/ml streptomycin and 500 microg/ml G418 at 37° C. in a humidified incubator with 5% CO2 and grown to 60-80% confluence. The day before the assay, the cells were seeded on poly-D-lysine coated 384-well plates (BD FALCON) at a density of 10,000 cells per well, and incubated overnight in incubator.
On the day of the assay, the cells were washed three times with assay buffer (Hanks' balanced salt solution with 20 mM HEPES, pH7.4), and were incubated for 1 hour at room temperature to load 0.5 microM Fluo-4 AM reagent (Invitrogen).
After removing Fluo-4, and washing with assay buffer, the cells were added with various concentrations of the compounds. The changes in intracellular calcium concentration were monitored with the fluorescence imaging plate reader, FDSS6000 (Hamamatsu Photonics).
The EC50 values for compounds of the present invention were determined from 11-point dose-response studies. Curves were generated using the average of duplicate wells for each data point. Finally, the EC50 values were calculated using the best-fit dose curve determined by XLfit (ID Business Solutions Ltd).

T1 sequence (Q92847 whole entry): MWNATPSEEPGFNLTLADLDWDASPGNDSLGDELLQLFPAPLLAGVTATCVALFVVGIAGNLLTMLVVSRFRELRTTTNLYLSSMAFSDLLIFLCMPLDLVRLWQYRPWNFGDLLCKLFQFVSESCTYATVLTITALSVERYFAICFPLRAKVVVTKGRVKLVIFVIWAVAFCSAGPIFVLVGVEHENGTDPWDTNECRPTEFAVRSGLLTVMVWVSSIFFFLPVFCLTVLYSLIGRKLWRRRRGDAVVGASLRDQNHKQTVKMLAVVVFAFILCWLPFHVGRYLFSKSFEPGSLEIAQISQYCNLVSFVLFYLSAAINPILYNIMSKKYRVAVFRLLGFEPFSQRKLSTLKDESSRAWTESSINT

EC50, < 10 nM:
CN1N=C2CCN(C(=O)[C@@H](COc3cc(C(F)(F)F)cc(C(F)(F)F)c3)NC(=O)C(C)(C)N)C[C@@]2(Cc2ccccc2)C1=O [Example 9, 2-amino-N—((R)-1-((R)-3a-benzyl-2-methyl-3-oxo-3a,4,6,7-tetrahydro-2H-pyrazolo[4,3-c]pyridin-5(3H)-yl)-3-(3,5-bis(trifluoromethyl)phenoxy)-1-oxopropan-2-yl)-2-methylpropanamide]
CN1N=C2CCN(C(=O)[C@@H](COc3ccccn3)NC(=O)C(C)(C)N)C[C@@]2(Cc2ccccc2)C1=O [Example 17, 2-amino-N—((R)-1-((R)-3a-benzyl-2-methyl-3-oxo-3a,4,6,7-tetrahydro-2H-pyrazolo[4,3-c]pyridin-5(3H)-yl)-1-oxo-3-(pyridin-2-yloxy)propan-2-yl)-2-methylpropanamide]
CN1N=C2CCN(C(=O)[C@@H](COc3cncc(F)c3)NC(=O)C(C)(C)N)C[C@@]2(Cc2ccccc2)C1=O [Example 18, 2-amino-N—((R)-1-((R)-3a-benzyl-2-methyl-3-oxo-3a,4,6,7-tetrahydro-2H-pyrazolo[4,3-c]pyridin-5(3H)-yl)-3-((5-fluoropyridin-3-yl)oxy)-1-oxopropan-2-yl)-2-methylpropanamide]
CN1N=C2CCN(C(=O)[C@@H](COc3ccc(C#N)cc3)NC(=O)C(C)(C)N)C[C@@]2(Cc2ccccc2)C1=O [Example 20, 2-amino-N—((R)-1-((R)-3a-benzyl-2-methyl-3-oxo-3a,4,6,7-tetrahydro-2H-pyrazolo[4,3-c]pyridin-5(3H)-yl)-3-(4-cyanophenoxy)-1-oxopropan-2-yl)-2-methylpropanamide]
